Experimental data from article PMC7311426, “An amphipathic peptide with antibiotic activity against multidrug-resistant Gram-negative bacteria” (Nature Communications, 2020).
Values after ≈ are worked out from the molar mass of the structure shown. Read-outs that look alike come from different tables or passages of the source. Residues, ends and D or L forms follow the SMILES beside them.

Columns and labels:
C. neoformans = test: microbe, parasite or virus in culture; conditions: for MIC: Cryptococcus neoformans, ATCC208821, read-out: BMD MIC, C. neoformans ATCC 208821 H99
C. albicans = test: microbe, parasite or virus in culture; conditions: for MIC: Candida albicans
P. aeruginosa = test: microbe, parasite or virus in culture; conditions: for MIC: Pseudomonas aeruginosa, mode of 6 replicates
Method in brief: (§1)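 MICs were scored by eye after 18-20 h static incubation at 37 °C, with bacteria at 5 × 10^5 CFU mL^−1 in MHB. Peptides were serially diluted 2-fold over 12 points, top 128 or 64 μg mL^−1. CAMHB (CLSI) and 1% agarose-MHB variants were also run, at least six replicates.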

E. coli [1] = test: microbe, parasite or virus in culture; conditions: for MIC: Escherichia coli
Method in brief: as §1

S. enterica Typhi = test: microbe, parasite or virus in culture; conditions: for BMD MIC: Typhi
Method in brief: as §1

L. monocytogenes = test: microbe, parasite or virus in culture
Method in brief: as §1

K. pneumoniae = test: microbe, parasite or virus in culture; conditions: for MIC: Klebsiella pneumoniae, mode of 6 replicates
Method in brief: as §1

A. baumannii = test: microbe, parasite or virus in culture; conditions: for MIC: Acinetobacter baumannii, mode of 6 replicates
Method in brief: as §1

E. coli ATCC 25922 = test: microbe, parasite or virus in culture; assay type: cell-based, Escherichia coli; conditions: ATCC 25922
Protocol: Assays were performed in Mueller Hinton broth (MHB; BD, Cat. No. 211443) for bacteria, and yeast extract-peptone dextrose (YPD; Sigma-Aldrich, Y1500) for yeast. The concentrations of the peptides and comparator antibiotics/antifungals in the assay wells ranged from either 128 or 64 μg mL^−1, to 0.06 or 0.03 μg mL^−1 as a 12-point dose response plated as a 2-fold dilution series across the wells of the plate in duplicate for each independent biological replicate, using a final cell density of 5 × 10^5 CFU mL^−1 and 2.5 × 10^3 CFU mL^−1 for bacteria and yeast respectively. Final assay volumes were 100 μL per well with MICs determined visually following 18-20 h incubation at 37 °C for bacteria, 24 h incubation at 35 °C for Candida albicans, and 24 h incubation at 35 °C with resazurin addition (0.006%; Sigma-Aldrich, Cat # R7017) for a further 3 h for Cryptococcus neoformans, without shaking. Additional bacterial and yeast susceptibility assays were performed in Cation-Adjusted Mueller Hinton Broth (CAMHB; BD, Cat No. 212322) and Roswell Park Memorial Institute (RPMI) 1640 culture medium (Life Technologies Australia, Cat No. 21870092), respectively, as recommended by CLSI guidelines (M07 11th ed[36] and M27 4th ed[37]). […] However, for yeast it was determined that the YPD media was more reliable and robust between repeats and therefore MICs in this media are reported. […] Agarose MICs were determined in MHB with 1% agarose (Bioline molecular grade; Cat no: BIO-41025; high purity, high gel strength). All experiments were performed a minimum of six replicates (n ≥ 6).

[2] = test system: HEK-293 human embryonic kidney cells; test: in vitro
in vitro = conditions: human
[3] = test system: HepG2 liver hepatocellular carcinoma cells; test: in vitro
[4] = test system: HK-2 human kidney proximal tubule cells; test: in vitro
[5] = test system: human erythrocytes (HRBC); assay type: cell-based; conditions: for Heamolysis HC10: red cells of human, 3 h
E. coli [6] = test system: E. coli; set-up: method as in Hasman H, et al. Euro. Surveill. (2015) 20:49; conditions: E. coli ESBL20150072, mcr-1 pos; ESBL; CAMHB; comparator antibiotics; ref Hasman H, et al. Euro. Surveill. (2015) 20:49; cited from earlier work

SMILES	BMD MIC (C. neoformans) [µg/mL]	BMD MIC (P. aeruginosa) [µg/mL]	MIC against ESBL producing E. coli DSA 443 (E. coli [1]) [µg/mL]	BMD MIC (C. albicans) [µg/mL]	BMD MIC (C. albicans; 24 h) [µg/mL]	BMD MIC (S. enterica Typhi) [µg/mL]	BMD MIC (L. monocytogenes) [µg/mL]	BMD MIC (K. pneumoniae) [µg/mL]	BMD MIC (A. baumannii) [µg/mL]	MIC, MHB (E. coli ATCC 25922) [µg/mL]	CC50 HEK293 [2] [µg/mL]	CC50 HEK293, Mean [2] [µg/mL]	CC50 at 24 h (in vitro; HEK-293 cells) [µg/mL]	CC50 at 24 h (in vitro; HK-2 cells) [µg/mL]	CC50 at 24 h (in vitro; HepG2 cells) [µg/mL]	CC50 HepG2 [3] [µg/mL]	CC50 HepG2, Mean [3] [µg/mL]	CC50 HK2 [4] [µg/mL]	CC50 HK2, Mean [4] [µg/mL]	Heamolysis HC10, Mean [5] [µg/mL]	further results
OC(Cn1cncn1)(Cn1cncn1)c1ccc(F)cc1F [Fluconazole, reference compound]	–	–	–	–	–	–	–	–	–	–	–	–	–	–	–	–	–	–	–	–	MIC (C. neoformans; RPMI, mode of 6 replicates): 2 µg/mL (≈ 6.53 µM); MIC (C. neoformans; YPD, 24 h 35 °C + resazurin 3 h, mode of 6 replicates): 8 µg/mL; MIC (C. albicans; ATCC90028, 24 h, read-out: BMD MIC): 1 µg/mL (≈ 3.27 µM); MIC (C. albicans; ATCC90028, read-out: BMD MIC): 0.5 µg/mL (≈ 1.63 µM)
CC(C)[C@@H]1NC(=O)CNC(=O)[C@H](CC(N)=O)NC(=O)[C@H](CCCNC(=N)N)NC(=O)[C@H](CCCNC(=N)N)NC(=O)[C@H](C(C)C)NC(=O)[C@@H]2CSSC[C@H](NC(=O)[C@H](C(C)C)NC(=O)[C@H](CCCNC(=N)N)NC1=O)C(=O)N[C@@H](Cc1c[nH]cn1)C(=O)N[C@@H](CCCNC(=N)N)C(=O)N[C@@H](CCCNC(=N)N)C(=O)N[C@H](C(=O)N[C@@H](CC(N)=O)C(=O)O)CSSC[C@H](NC(=O)[C@H](Cc1ccccc1)NC(=O)CN)C(=O)N[C@@H](Cc1c[nH]c3ccccc13)C(=O)N[C@@H](CC(N)=O)C(=O)N[C@@H](C(C)C)C(=O)N2 [NZ17143] (HELM PEPTIDE1{G.F.C.W.N.V.C.V.R.R.N.G.V.R.V.C.H.R.R.C.N}$PEPTIDE1,PEPTIDE1,3:R3-20:R3|PEPTIDE1,PEPTIDE1,7:R3-16:R3$$$V2.0)	4	1	0.5 (≈ 0.198 µM)	>32	32	0.5	8	1	2	0.25 (≈ 0.0988 µM)	>300	>300	> 300	> 250	> 300	>300	>300	>253	>250	>300	Heamolysis HC10 [5]: >300 µg/mL
CO/N=C(\C(=O)N[C@@H]1C(=O)N2C(C(=O)[O-])=C(C[N+]3(C)CCCC3)CS[C@H]12)c1csc(N)n1 [Cefepime, reference compound]	–	–	–	–	–	–	–	–	–	–	–	–	–	–	–	–	–	–	–	–	MIC (P. aeruginosa; ATCC27853, read-out: BMD MIC, P. aeruginosa ATCC 27853 control strain, CAMHB): ≤ 0.5 µg/mL; MIC (P. aeruginosa; read-out: BMD MIC, P. aeruginosa FADDI-070, MDR, PmxR, MHB/CAMHB): > 64 µg/mL; MIC (E. coli [1]; ATCC25922, read-out: BMD MIC, E. coli ATCC 25922 FDA control strain, CAMHB, mode of 6 replicates): ≤ 0.5 µg/mL; MIC (E. coli [1]; ATCC700926 / MG1655, read-out: BMD MIC): ≤ 0.5 µg/mL; MIC (E. coli [1]; ATCC700928, read-out: BMD MIC, E. coli ATCC 700928 CFT073 UPEC, CAMHB, mode of 6 replicates): ≤ 0.5 µg/mL; MIC (E. coli [1]; read-out: BMD MIC): 8 µg/mL (≈ 16.6 µM); MIC (S. enterica Typhi; Salmonella enterica, ATCC14028 / TYPHI, read-out: BMD MIC): ≤ 0.5 µg/mL; MIC (K. pneumoniae; ATCC13883, read-out: BMD MIC, K. pneumoniae ATCC 13883 type strain (polymyxin/colistin heteroresistant), MHB): 1 µg/mL (≈ 2.08 µM); MIC (K. pneumoniae; ATCC700603, read-out: BMD MIC, K. pneumoniae ATCC 700603 (K6), MDR, OXA-2/SHV-18, CAMHB): 0.5 µg/mL (≈ 1.04 µM); MIC (K. pneumoniae; BAA2146, read-out: BMD MIC, K. pneumoniae BAA-2146, MDR, ESBL, NDM-1 pos, MHB): > 64 µg/mL; MIC (K. pneumoniae; read-out: BMD MIC, K. pneumoniae Greece CI 8_GR_13, XDR, KPC-2, PmxR, MHB): > 64 µg/mL; MIC (A. baumannii; ATCC19636, read-out: BMD MIC, A. baumannii ATCC 19636 type strain, CAMHB): 8 µg/mL (≈ 16.6 µM); MIC (A. baumannii; read-out: BMD MIC, A. baumannii Greece CI, XDR, PmxR, MHB): > 64 µg/mL; BMD MIC (E. coli [6]): >2 µg/mL
CC[C@H](C)[C@@H]1NC(=O)[C@H](CCCNC(=N)N)NC(=O)[C@H](C(C)C)NC(=O)CNC(=O)[C@H](CC(N)=O)NC(=O)[C@H](CCCNC(=N)N)NC(=O)[C@H](Cc2ccc(O)cc2)NC(=O)[C@H](C(C)C)NC(=O)[C@@H]2CSSC[C@H](NC1=O)C(=O)N[C@@H](Cc1c[nH]cn1)C(=O)N[C@@H](CCCNC(=N)N)C(=O)N[C@@H](CCCNC(=N)N)C(=O)N[C@H](C(=O)N[C@@H](CC(N)=O)C(=O)O)CSSC[C@H](NC(=O)[C@H](Cc1ccccc1)NC(=O)CN)C(=O)N[C@@H](Cc1c[nH]c3ccccc13)C(=O)N[C@@H](CC(N)=O)C(=O)N[C@@H](C(C)C)C(=O)N2 [NZ17211] (HELM PEPTIDE1{G.F.C.W.N.V.C.V.Y.R.N.G.V.R.I.C.H.R.R.C.N}$PEPTIDE1,PEPTIDE1,3:R3-20:R3|PEPTIDE1,PEPTIDE1,7:R3-16:R3$$$V2.0)	4	2	2.0 (≈ 0.784 µM)	>32	64	1	16	2	4	0.5 (≈ 0.196 µM)	>300	>300	> 300	> 250	> 300	>300	>300	>255	>250	>300	Heamolysis HC10 [5]: >300 µg/mL
C[C@@H]1[C@H](O)[C@@H](C)/C=C/C=C/C=C/C=C/C=C/C=C/C=C/[C@H](O[C@@H]2O[C@H](C)[C@@H](O)[C@H](N)[C@@H]2O)C[C@@H]2O[C@](O)(C[C@@H](O)C[C@@H](O)[C@H](O)CC[C@@H](O)C[C@@H](O)CC(=O)O[C@H]1C)C[C@H](O)[C@H]2C(=O)O [Amphroterocin B, reference compound]	–	–	–	–	–	–	–	–	–	–	–	–	–	–	–	–	–	–	–	–	BMD MIC (C. neoformans; C. neoformans ATCC 208821 H99, RPMI, mode of 6 replicates): 0.5 µg/mL; BMD MIC (C. neoformans; C. neoformans ATCC 208821 H99, YPD, 24 h 35 °C + resazurin 3 h, mode of 6 replicates): 0.5 µg/mL; BMD MIC (C. albicans; C. albicans ATCC 90028 NCCLS 11, RPMI, mode of 6 replicates): 0.5 µg/mL; BMD MIC (C. albicans; C. albicans ATCC 90028 NCCLS 11, YPD, 24 h 35 °C, mode of 6 replicates): 1 µg/mL
